Tested on: phenyl-p-benzoquinone-induced writhing
Test: mouse phenyl-p-benzoquinone-induced writhing test (analgesic activity)
Type: in vivo
Settings: s.c.; 60 minutes; male CD-1 mice; dose which decreased writhing by ≥50% of control mean in 50% of the mice
Procedure: This test is a modification of the procedure described by L. C. Hendershot and J. Forsaith, in J. PHARMACOL. EXP. THER., 125:237(1959).
Details of the test are as follows: Groups of 10 male CD-1 mice (Charles River) weighing 18-25 g. are pretreated subcutaneously (s.c.) or intragastrically (i.g.) with the vehicle control or the compound of interest in a volume of 10 ml/kg. Phenyl-p-benzoquinone (PBQ), 2.5 mg/kg is administered intraperitoneally (i.p.) 30 or 60 minutes later as a 0.025% solution in 5% ethanol. Starting 5 minutes after the PBQ challenge, each mouse is observed for a 10 minute period during which the number of writhes are counted. A "writhe" consists of a combination or sequence of arching the back, pelvic rotation, and hind limb extension. Significant analgesia is assumed when an animal writhing frequency is ≤50% of the daily control group mean. Estimates of the ED50 defined as the dose which decreased writhing by ≥50% of the control group mean in 50% of the mice are determined using the method of J. T. Litchfield and F. Wilcoxon, J. PHARMCOL. EXP. THER., 96:99(1949).

Structure (SMILES): CN1CC[C@]23c4c5ccc(O)c4O[C@H]2[C@@H](O)C=C[C@H]3[C@H]1C5 [morphine]
- ED50 (95% confidence limits): 0.1 mpk

Source: patent publication US4273704A, “N-Adamantane-substituted tetrapeptide amides” (G. D. Searle & Co., priority 1979, dated 1981)
